Assay [1] addresses T1, Muscarinic M3 (Homo sapiens, UniProt P20309).
T1 construct: Eurofins Panlabs, Inc
The assay is described as follows: Radioligand binding, Muscarinic M3.

The target in assay [2] is T2, Bradykinin B1 (Homo sapiens, UniProt P46663).
T2 construct: Eurofins Panlabs, Inc. (contract assay)
The assay is described as follows: Radioligand binding, Bradykinin B1.

In assay [3] the target is T3, Interleukin IL-1 (Mus musculus, UniProt P13504).
T3 construct: Eurofins Panlabs, Inc
Description: Radioligand binding, Interleukin IL-1.

Assay [4] concerns the target T4, Endothelin ETB (Homo sapiens, UniProt P24530).
T4 construct: Eurofins Panlabs, Inc. (contract assay)
Description: Radioligand binding, Endothelin ETB.

Assay [5] has as its target T5, Adrenergic α1B (Rattus norvegicus, UniProt P15823).
T5 construct: Eurofins Panlabs, Inc. (contract assay)
The assay is described as follows: Radioligand binding, Adrenergic α1B.

The target in assay [6] is T6, Potassium Channel [KATP] (Cricetus cricetus, UniProt Q09427).
T6 construct: Eurofins Panlabs
Description: Radioligand binding, Potassium Channel [KATP]. To be noted: hamster. How it is done:
To evaluate, in radioligand binding assays, the activity of the compound of Example 1 across a panel of 67 receptors.
Methods employed in this study have been adapted from the scientific literature to maximize reliability and reproducibility. Reference standards were run as an integral part of each assay to ensure the validity of the results obtained.
Where presented, IC50 values were determined by a non-linear, least squares regression analysis using MathIQ™ (ID Business Solutions Ltd., UK). Where inhibition constant (Ki) are presented, the Ki values were calculated using the equation of Cheng and Prusoff (Cheng. Y., Prusoff, W. H., Biochem. Pharmacol. 22:3099-3108, 1973) using the observed IC50 of the tested compound, the concentration of radioligand employed in the assay, and the historical values of the KD of the ligand (obtained experimentally at Eurofins Panlabs, Inc.). Where presented, the Hill coefficient (nH), defining the slope of the competitive binding curve, was calculated using MathIQ™. […] Where IC50, Ki, and/or nH data are presented without Standard Error of the Mean (SEM), data are insufficient to be quantitative, and the values presented (Ki, IC50, nH) should be interpreted with caution.

In assay [7] the target is T7, Muscarinic M2 (Homo sapiens, UniProt P08172).
T7 construct: Eurofins Panlabs, Inc
Description: Radioligand binding, Muscarinic M2.

Assay [8] has as its target T8, Calcium Channel N-Type (Rattus norvegicus, UniProt Q02294).
T8 construct: Eurofins Panlabs, Inc. (contract assay)
The assay is described as follows: Radioligand binding, Calcium Channel N-Type.

The target of assay [9] is T9, Transporter, GABA (Rattus norvegicus, UniProt P23978).
T9 construct: Eurofins Panlabs
Description: Radioligand binding, Transporter, GABA.

For assay [10], the system named is primary human melanocytes. The assay is described as follows: Cell proliferation/viability assay of primary human melanocytes. The format is cell-based. The conditions noted are these: Melanocyte, 24 hours, CellTiter-Glo. How it is done:
Primary human neonatal melanocytes were isolated from discarded foreskins by gentle dispase treatment and grown in Ham's F10 media supplemented with 7% FBS, penicillin/streptomycin/glutamine, 0.1 mM methyl-3-(2-methylpropyl)-7H-1-purine-2,6-dione (IBMX), 50 ng/mL 12-tetradecanoylphorbol 13-acetate (TPA), 1 μM Na3VO4 and 1 μM N(6),2′-O-dibutyryladenosine 3′:5′ cyclic monophosphate (dbcAMP). Cells were plated at 4,000 cells per well of a 384 well plate. On the following day, 10 nL of compound was added per well and incubated for 24 hours. The compounds were tested at different concentrations to determine IC50 values. At the end of compound treatment, cell viability was measured with CellTiter-Glo (Promega) and luminescence measured with the PerkinElmer EnVision plate reader. Data were normalized against DMSO in Genedata Screener's Assay Analyzer.
Primary human neonatal melanocytes were isolated from discarded foreskins by gentle dispase treatment and grown in TIVA media (Ham's F10 media supplemented with 7% FBS, penicillin/streptomycin/glutamine, 0.1 mM IBMX, 50 ng/mL TPA, […]). […]
Day 3 • 5. […] Read on the Perkin-Elmer EnVision plate reader with luminescence (LUM) settings for 0.1 sec per well. qPCR Assay for Target Gene Expression (MITF: 2084-05, TRPM1: 2084-09, CDK2: 2084-11, DCT: 2084-12, MLANA: 2084-13)
Background: ATP-based viability assays read luminescence as a measure of living cells.

The subject of assay [11] is A375 cells. Description: A-375 cell cytotoxicity assay (CellTiter-Glo). In kind it is cell-based, human. To be noted: Homo sapiens, A-375; 24 hours, CellTiter-Glo; read-out: Antitarget Potency IC50 (μM) A375. How it is done: A375 cells were treated with compounds for 24 hours, and then cell viability was measured using the CellTiter-Glo Assay (Promega), a luciferase-based reagent that measures cellular ATP levels. The compounds were tested at different concentrations to determine IC50 values. Compounds that were active in the primary assay and were not toxic below 30 μM at 24 hours were considered for probe development. Data were normalized against DMSO in Genedata Screener's Assay Analyzer.
A-375 cells were maintained in DMEM (10% FBS, 1% Pen-Strep-Glutamine). Cells were fluid changed every 3 days and/or split upon reaching 90% confluency. For secondary assays, cells were thawed at 2 million cells per Falcon T175 flask. After 3 days, cells were passed to a Corning Triple flask (6-8 million cells) and plated after 3 days in the triple flask.
Day 1 • 1. Plate A-375 cells at 3,000 per well in 30 uL media (phenol red free DMEM/10% Fetal Bovine Serum/Penicillin/Streptomycin/L-Glutamine) • 2. Use Corning white 384-well, square, opaque-bottomed plates (Corning Catalog No. 8867BC)
Day 2 • 3. Pin 100 nL compound/DMSO solution (Cybi Well) into assay plates. (For HTS, required sentinel pinning with the positive control, parthenolide (6 mM)) • 4. Incubate 24 hours at 37° C. in Liconic incubator.
Day 3 • 5. […] Read on the Perkin-Elmer EnVision plate reader with luminescence (LUM) settings for 0.1 sec per well. […]

This is an account of results in US9745261B2, “Inhibitors of the MITF molecular pathway” (THE GENERAL HOSPITAL CORPORATION, priority 2013, dated 2017).

T4 sequence (P24530 27-442): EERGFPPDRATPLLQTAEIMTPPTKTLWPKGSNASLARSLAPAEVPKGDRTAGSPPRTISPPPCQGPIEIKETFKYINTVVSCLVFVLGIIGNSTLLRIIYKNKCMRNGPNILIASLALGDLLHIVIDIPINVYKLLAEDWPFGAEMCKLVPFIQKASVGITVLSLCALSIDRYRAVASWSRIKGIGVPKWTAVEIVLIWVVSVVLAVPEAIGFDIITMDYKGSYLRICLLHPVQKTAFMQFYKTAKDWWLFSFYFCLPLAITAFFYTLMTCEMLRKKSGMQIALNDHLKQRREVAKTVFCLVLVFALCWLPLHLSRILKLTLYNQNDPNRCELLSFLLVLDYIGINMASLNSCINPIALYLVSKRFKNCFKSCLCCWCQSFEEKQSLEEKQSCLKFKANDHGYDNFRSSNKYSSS
T6 sequence (Q09427 whole entry): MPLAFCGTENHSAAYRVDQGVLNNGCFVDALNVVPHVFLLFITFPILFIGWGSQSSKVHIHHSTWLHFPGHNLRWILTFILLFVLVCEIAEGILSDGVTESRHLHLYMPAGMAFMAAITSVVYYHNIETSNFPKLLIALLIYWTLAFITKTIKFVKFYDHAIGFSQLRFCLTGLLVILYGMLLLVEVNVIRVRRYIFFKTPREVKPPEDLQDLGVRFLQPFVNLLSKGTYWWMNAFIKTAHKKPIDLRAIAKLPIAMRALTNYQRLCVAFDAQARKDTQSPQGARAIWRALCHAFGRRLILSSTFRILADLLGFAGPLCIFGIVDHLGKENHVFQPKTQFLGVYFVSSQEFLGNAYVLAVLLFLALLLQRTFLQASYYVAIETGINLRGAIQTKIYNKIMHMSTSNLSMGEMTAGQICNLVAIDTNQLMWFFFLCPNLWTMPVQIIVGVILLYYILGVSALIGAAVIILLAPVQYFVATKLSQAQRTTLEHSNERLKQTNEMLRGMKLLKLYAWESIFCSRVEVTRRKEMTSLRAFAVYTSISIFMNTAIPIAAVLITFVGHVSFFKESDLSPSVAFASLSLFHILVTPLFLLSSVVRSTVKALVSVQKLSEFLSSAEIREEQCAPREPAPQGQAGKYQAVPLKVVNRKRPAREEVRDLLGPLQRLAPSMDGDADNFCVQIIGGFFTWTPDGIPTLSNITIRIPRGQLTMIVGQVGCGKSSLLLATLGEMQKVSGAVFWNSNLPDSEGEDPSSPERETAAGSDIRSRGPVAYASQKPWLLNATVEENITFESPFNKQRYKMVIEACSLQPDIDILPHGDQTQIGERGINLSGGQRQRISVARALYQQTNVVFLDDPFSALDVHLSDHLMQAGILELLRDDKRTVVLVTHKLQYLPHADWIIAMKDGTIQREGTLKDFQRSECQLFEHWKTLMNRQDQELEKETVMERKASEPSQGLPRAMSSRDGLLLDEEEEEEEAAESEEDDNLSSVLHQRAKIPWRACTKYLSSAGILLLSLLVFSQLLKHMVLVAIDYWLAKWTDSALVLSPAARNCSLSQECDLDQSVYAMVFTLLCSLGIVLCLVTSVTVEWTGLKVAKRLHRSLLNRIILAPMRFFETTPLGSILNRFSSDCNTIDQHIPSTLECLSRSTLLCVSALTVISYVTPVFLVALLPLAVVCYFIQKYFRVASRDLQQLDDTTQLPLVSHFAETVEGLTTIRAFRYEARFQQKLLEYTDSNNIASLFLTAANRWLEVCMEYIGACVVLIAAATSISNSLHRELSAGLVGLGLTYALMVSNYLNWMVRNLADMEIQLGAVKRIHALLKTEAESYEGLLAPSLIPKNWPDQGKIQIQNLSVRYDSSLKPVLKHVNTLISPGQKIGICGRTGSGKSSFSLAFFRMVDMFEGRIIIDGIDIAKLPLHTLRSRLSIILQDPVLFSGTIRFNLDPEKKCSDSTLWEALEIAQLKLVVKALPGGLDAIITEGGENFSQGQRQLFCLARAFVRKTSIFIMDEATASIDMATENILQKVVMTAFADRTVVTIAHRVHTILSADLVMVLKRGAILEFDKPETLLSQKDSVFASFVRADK
T2 sequence (P46663 whole entry): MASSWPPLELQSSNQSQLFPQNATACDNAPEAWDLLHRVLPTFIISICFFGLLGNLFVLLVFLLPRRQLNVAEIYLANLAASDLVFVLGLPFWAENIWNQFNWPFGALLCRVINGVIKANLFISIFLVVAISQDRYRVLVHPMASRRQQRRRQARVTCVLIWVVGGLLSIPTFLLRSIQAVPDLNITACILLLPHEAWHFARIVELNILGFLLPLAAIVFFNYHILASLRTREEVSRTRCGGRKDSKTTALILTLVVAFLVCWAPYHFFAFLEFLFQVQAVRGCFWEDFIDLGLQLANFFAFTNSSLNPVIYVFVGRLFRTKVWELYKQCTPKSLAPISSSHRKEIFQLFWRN
T1 sequence (P20309 whole entry): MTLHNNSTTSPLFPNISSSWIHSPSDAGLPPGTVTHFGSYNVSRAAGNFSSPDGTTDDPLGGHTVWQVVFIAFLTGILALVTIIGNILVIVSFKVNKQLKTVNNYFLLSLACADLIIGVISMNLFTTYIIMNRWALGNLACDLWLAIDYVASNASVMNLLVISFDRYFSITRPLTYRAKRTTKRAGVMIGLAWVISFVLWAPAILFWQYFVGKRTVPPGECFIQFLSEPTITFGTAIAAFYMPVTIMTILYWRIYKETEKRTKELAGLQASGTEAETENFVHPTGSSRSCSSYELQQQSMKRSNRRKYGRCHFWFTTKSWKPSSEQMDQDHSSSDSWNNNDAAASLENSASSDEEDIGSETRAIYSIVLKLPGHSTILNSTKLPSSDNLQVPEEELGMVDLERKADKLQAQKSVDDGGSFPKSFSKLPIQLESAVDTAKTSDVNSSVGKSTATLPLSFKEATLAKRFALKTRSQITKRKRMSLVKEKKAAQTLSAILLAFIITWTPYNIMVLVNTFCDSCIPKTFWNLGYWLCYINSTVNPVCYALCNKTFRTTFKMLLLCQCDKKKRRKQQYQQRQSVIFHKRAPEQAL
T3 sequence (P13504 20-576): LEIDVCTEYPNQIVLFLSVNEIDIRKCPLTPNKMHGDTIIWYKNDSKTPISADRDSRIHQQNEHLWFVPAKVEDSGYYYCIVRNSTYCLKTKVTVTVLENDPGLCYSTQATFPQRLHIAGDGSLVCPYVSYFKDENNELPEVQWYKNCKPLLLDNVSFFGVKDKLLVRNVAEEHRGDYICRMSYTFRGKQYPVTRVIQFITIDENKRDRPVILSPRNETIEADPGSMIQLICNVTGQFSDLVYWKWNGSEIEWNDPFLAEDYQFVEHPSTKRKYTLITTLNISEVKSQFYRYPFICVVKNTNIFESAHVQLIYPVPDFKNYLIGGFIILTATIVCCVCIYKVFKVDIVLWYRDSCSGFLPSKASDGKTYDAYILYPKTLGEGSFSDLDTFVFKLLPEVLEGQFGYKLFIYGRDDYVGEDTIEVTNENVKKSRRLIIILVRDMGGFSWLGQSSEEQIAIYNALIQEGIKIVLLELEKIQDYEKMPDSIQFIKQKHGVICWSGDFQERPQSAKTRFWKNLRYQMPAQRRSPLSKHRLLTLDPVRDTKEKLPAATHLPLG
T5 sequence (P15823 whole entry): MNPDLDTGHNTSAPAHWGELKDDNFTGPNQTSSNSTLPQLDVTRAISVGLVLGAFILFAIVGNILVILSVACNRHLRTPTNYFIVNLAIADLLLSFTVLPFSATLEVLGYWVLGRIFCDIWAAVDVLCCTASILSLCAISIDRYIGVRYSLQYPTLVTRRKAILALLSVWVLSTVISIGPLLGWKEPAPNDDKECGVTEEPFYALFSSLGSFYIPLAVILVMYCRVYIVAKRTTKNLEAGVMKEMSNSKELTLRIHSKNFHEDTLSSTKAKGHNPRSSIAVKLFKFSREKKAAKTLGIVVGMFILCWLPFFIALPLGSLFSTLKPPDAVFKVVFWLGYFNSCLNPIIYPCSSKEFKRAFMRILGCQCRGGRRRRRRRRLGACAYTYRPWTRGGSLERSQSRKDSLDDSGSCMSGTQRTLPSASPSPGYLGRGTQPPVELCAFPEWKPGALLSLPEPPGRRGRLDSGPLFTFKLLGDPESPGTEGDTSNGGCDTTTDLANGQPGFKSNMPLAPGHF

As usually defined, the inhibition is the change of the read-out against control, counted positive when it falls. Take `NS(=O)(=O)c1ccc(NC2=CC(=O)c3ccccc3C2=O)cc1` [Example 1, 4-((1,4-Dioxo-1,4-dihydronaphthalen-2-yl)amino)benzenesulfonamide]: the inhibition at 10 µM in [1] was 22%; in assay [2] it was 29%; in assay [3] it was 6%; in assay [4], 17%; in [5], 16%; in assay [6], 10%. Further, the inhibition at 10 µM in assay [7] was 15%; in [8] it was -3%; in assay [9], 9%.

Usually IC50 stands for the concentration that gives 50% inhibition. Turning to `NS(=O)(=O)c1ccc(NC2=CC(=O)c3ccccc3C2=O)cc1` [4-((1,4-dioxo-1,4-dihydronaphthalen-2-yl)amino)benzenesulfonamide], the IC50 in assay [10] is 7.14 µM; in assay [11], greater than 35 µM.
